Reference: ChEMBL document CHEMBL2150927, “5-Amino-oxazepine and 5-Amino-thiazepine Compounds as β-Secretase Antagonists and Methods of Use: Patent Highlight” (ACS Med Chem Lett, 2012)

How the values were obtained:
Beta-secretase 1 [1] = molecular target: T1, Beta-secretase 1 (Homo sapiens, UniProt P56817); experiment: Inhibition of BACE1 expressed in HEK cells by cell-based assay; set-up: species or system HEK293
Beta-secretase 1 [2] = molecular target: T1, Beta-secretase 1; experiment: Inhibition of BACE1 by FRET assay

T1 sequence (P56817 whole entry): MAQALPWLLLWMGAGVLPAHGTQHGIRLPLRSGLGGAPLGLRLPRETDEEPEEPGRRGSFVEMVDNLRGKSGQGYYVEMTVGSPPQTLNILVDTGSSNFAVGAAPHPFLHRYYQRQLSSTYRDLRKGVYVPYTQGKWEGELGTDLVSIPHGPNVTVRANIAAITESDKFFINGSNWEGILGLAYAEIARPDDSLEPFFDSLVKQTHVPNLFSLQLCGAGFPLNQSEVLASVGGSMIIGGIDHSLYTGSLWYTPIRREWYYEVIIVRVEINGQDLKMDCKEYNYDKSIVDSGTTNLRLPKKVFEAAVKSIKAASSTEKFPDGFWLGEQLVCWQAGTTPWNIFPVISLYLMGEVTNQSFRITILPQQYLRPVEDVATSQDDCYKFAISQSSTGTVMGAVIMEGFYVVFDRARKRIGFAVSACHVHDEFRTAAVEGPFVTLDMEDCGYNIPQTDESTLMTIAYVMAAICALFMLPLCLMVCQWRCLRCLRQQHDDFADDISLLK

Row | SMILES | IC50 (Beta-secretase 1 [1]) [nM] | IC50 (Beta-secretase 1 [2]) [nM]
1 | CC(C)(C)COc1cc(F)c2c(c1)[C@]1(COCCC(N)=N1)c1cc(-c3cccnc3F)ccc1O2 | 7 | –
2 | NC1=N[C@@]2(COCC1)c1cc(-c3cccnc3F)ccc1Oc1cnc(-c3ccnc(F)c3)cc12 | 1 | –
3 | NC1=N[C@@]2(CCOC1)c1cc(-c3cccnc3F)ccc1Oc1cnc(C3CCC(F)(F)C3)cc12 (stereo partly specified) | 4 | 3
4 | NC1=N[C@@]2(CCOC1)c1cc(-c3cccnc3F)ccc1Oc1cnc(-c3ccc(F)c(F)c3)cc12 | 19 | 2
